Results: patent US20080234233A1, “MEDICAMENT FOR TREATMENT OF NEURODEGENERATIVE DISEASES” (INSTITUTE OF MEDICINAL MOLECULAR DESIGN INC., priority 2002, published 2008)

Columns and labels:
AP-1 activation [1] = experiment: Inhibition against AP-1 activation by forced expression of MEKK-1, luciferase reporter assay in HepG2; format: cell-based, human; settings: HepG2, MEKK-1 forced expression, 24 hours
Method: Measurement of Inhibition Against AP-1 Activation by Forced Expression of MEKK-1
Using a transfection reagent (Effectene; QIAGEN), the human hepatoma cell strain HepG2 was cotransfected with a plasmid (pAP-1-Luc Reporter Plasmid: […]) integrated with an oligonucleotide having seven tandem copies of AP-1 binding sequences (TGACTAA) on an upstream region of firefly luciferase gene (Luc) and the MEKK-1 expression plasmid (pFCMEKK: […]) according to the QIAGEN's protocol, and the cells were incubated for 20 to 24 hours. Then the cells were incubated in the presence or absence of a test compound for 24 hours, and then intracellular luciferase activity was measured by using PicaGene LT (TOYO INK MFG Co., Ltd.) and a chemical luminescence measurement apparatus ([…]luor Plus; TECAN). The inhibitory ratio was measured as a ratio relative to the value of the luciferase activity in the absence of the test compound.

NF-κ B activation = experiment: Inhibitory activity of NF-κB activation, luciferase reporter assay under TNF-α stimulation in HepG2; format: cell-based, human; settings: HepG2, TNF-α 40 ng/ml, 4 hours; for inhibition at 1 µg/mL / inhibition at 10 µg/mL: Homo sapiens, read-out: Inhibitory rate against NF-κB activation (%)
Outline: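 HepG2 cells transiently transfected with luciferase reporter carrying five tandem NF-κB binding sites, then stimulated with TNF-α (40 ng/ml) ± compound for 4 hours. Luminescent luciferase activity measured; inhibition expressed relative to activity without compound.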

AP-1 activation [2] = experiment: Inhibition against AP-1 activation by TNF α stimulation, luciferase reporter assay in HeLa; format: cell-based, human; settings: TNF-α 40 ng/ml, 4 hours
Method: Measurement of Inhibition Against AP-1 Activation by TNF α Stimulation
Using a transfection reagent(Effectene; QIAGEN), the human uterine cancer cell strain HeLa was transfected with a plasmid(pAP-1-Luc Reporter Plasmid: […]) integrated with an oligonucleotide having seven tandem copies of AP-1 binding sequences(TGACTAA) on an upstream region of firefly luciferase gene(Luc) according to the QIAGEN's protocol, and the cells were incubated for 6 to 24 hours. After addition of TNF-α (40 ng/ml) in the presence or absence of a test compound, the cells were incubated for 4 hours, and intracellular luciferase activity was measured by using PicaGene LT(TOYO INK MFG Co., Ltd.) and a chemical luminescence measurement apparatus([…]luor Plus; TECAN). The inhibitory ratio was measured as a ratio relative to the value of the luciferase activity in the absence of the test compound.

GSK3 β = experiment: Amount of phosphorylated GSK3 β in MOLT-4F cells; format: cell-based, human; settings: 2 μM, 24 hours
Method: When Compound No. 4 (2 μM) of the present invention was allowed to act on MOLT-4F cells(human leukemia cells) for 24 hours, the amount of phosphorylated GSK3 β, produced by phosphorylation of GSK3 β, was increased, and it is well presumed that similar phenomena may possibly occur in nerve cells. Since GSK3 β is inactivated by the phosphorylation, it is considered that the increase of the amount of the phosphorylated GSK3 β substantially means the inhibition of GSK3 β. […] (Refer to “The Biochemical Journal”, (England), 2001, Vol. 359, No. PT1, p. 1-16; “Current Opinion in Neurobiology”, (England), 2002, Vol. 12, No. 3, p. 275-278; “Trends in Molecular Medicine”, (England), 2002, Vol. 8, No. 3, p. 126-132; “Proceedings of The National Academy of Sciences of The United States of America”, (USA), 1996, Vol. 93, No. 7, p. 2719-2723; “The Journal of Biological Chemistry”, (USA), 2002, Vol. 277, No. 44, p. 42060-42065; “Proceedings of The National Academy of Sciences of The United States of America”, (USA), 2003, Vol. 100, No. 2, p. 721-726; “Annals of The New York Academy of Sciences”, (USA), 2000, Vol. 920, p. 107-114; “Nature”, (England), 2003, Vol. 423, No. 6938, p. 435-439; and “Neuron”, (USA), 2003, Vol. 38, No. 4, p. 555-565.)

[3] = tested on: rat hippocampus injected with human β amyloid; experiment: Inhibitory activity against hypoplasia of memory formation (LTP), Alzheimer's model by injection of human β amyloid into the rat hippocampus; format: in vivo; settings: 30 mg/kg intraperitoneally once a day, FIG. 1
Description: Several places of rat hippocampus were infused with a 1:1 mixture of A β 1-40 and A β 1-43 which are human β amyloids (Aβ) for 7 continuous days by the microinjection method. On the 8th day, bipolar stimulating electrodes were fixed to the perforate pathway, and recording electrodes were fixed to the stratum moleculare of the hippocampus dentate gyrus under urethane anesthesia. A mono-synaptic reaction was searched by about 14 to 20 mV of test pulse from the stimulating electrode. Long-term potentiations (LTP: neurophysiological memory model phenomena) were compared by the test simulation and tetanic stimulation, and the existence of hypoplasia of memory formation was verified which is a problem in Alzheimer's disease. Three days before the start of the injection of β amyloid, saline for the control group and the test compound (30 mg/kg) for the dosing group were administered intraperitoneally once a day, and a comparison of LTP was carried out.

SMILES | Inhibitory ratio of AP-1 activation(%) (AP-1 activation [1]; Drug concentration 1 μg/mL) | inhibition at 1 µg/mL (NF-κ B activation; Drug concentration at 1 μg/mL) | inhibition at 10 µg/mL (NF-κ B activation; Drug concentration at 10 μg/mL) | melting point | Inhibitory ratio of AP-1 activation(%) (AP-1 activation [1]; Drug concentration 1 μM) | Inhibitory rate against NF-κB activation (%) (NF-κ B activation; Drug concentration at 1 μg/mL) | Inhibitory rate against NF-κB activation (%) (NF-κ B activation; Drug concentration at 10 μg/mL) | further results
CC(C)(C)C(=O)c1sc(NC(=O)c2cc(Cl)ccc2O)nc1C(C)(C)C [compound 199, 5-Chloro-N-{4-[(1,1-dimethyl)ethyl]-5-[(2,2-dimethyl)propionyl]thiazol-2-yl}-2-hydroxybenzamide] | 70.6% | 96.4% | 98.4% |  |  |  |  | 
O=C(Nc1cc(C(F)(F)F)cc(C(F)(F)F)c1)c1cc(C(=O)N2CCC(Cc3ccccc3)CC2)ccc1O [compound 40, N-[3,5-Bis(trifluoromethyl)phenyl]-2-hydroxy-5-(4-benzylpiperidine-1-carbonyl)-benzamide] |  | 44.9% | 96% | 179 to 180 °C |  |  |  | 
CC(=O)Oc1ccccc1C(=O)Nc1cc(Cl)cc(Cl)c1 [compound 120, 2-acetoxy-N-(3,5-dichlorophenyl)benzamide] |  | 88.6% | 97.5% | 218 to 219 °C |  |  |  | 
CCc1sc(NC(=O)c2cc(Br)ccc2O)nc1C(C)(C)C [compound 195, 5-Bromo-N-{4-[(1,1-dimethyl)ethyl]-5-ethylthiazol-2-yl}-2-hydroxybenzamide] | 95.5% | 90.5% | 98.1% |  | 91.2% |  |  | 
CC(=O)Nc1cc(O)c(C(=O)Nc2cc(C(F)(F)F)cc(C(F)(F)F)c2)cc1Cl [compound 50, 4-Acetylamino-N-[3,5-bis(trifluoromethyl)phenyl]-5-chloro-2-hydoxybenzamide] | 99.4% |  |  |  | 90.7% | 69.9% | 96.0% | 
O=C(Nc1cc(C(F)(F)F)cc(C(F)(F)F)c1)c1cc(Cl)ccc1O [compound 4, N-[3,5-bis(trifluoromethylphenyl)]-5-chloro-2-hydroxybenzamide] |  |  |  |  |  | 95.7% | 97.5% | Inhibitory rate against AP-1 activation(%) (AP-1 activation [2]; Drug concentration at 1 μg/mL): 42.4%; Inhibitory rate against AP-1 activation(%) (AP-1 activation [2]; Drug concentration at 10 μg/mL): 89.1%; amount of phosphorylated GSK3 β (GSK3 β): increased; inhibitory activity against hypoplasia of memory (LTP) [3]: inhibitory activity against hypoplasia of memory
